In US6608070B1, “2,3-substituted indole compounds as anti-inflammatory and analgesic agents” (priority 1999, dated 2003) one finds melting point data, which are given here for 42 compounds.

SMILES strings stand for the structures. Counter-ions that a name gives are not always drawn.

`O=C(O)Cc1c(C(=O)c2ccc(Cl)cn2)[nH]c2ccc(Cl)cc12` [Example 86, [5-Chloro-2-(5-chloropyridine-2-carbonyl)-1H-indol-3-yl]acetic Acid] yielded a melting point of 259 to 260 °C.
Next, `Cc1cc(C(=O)c2[nH]c3ccc(Cl)cc3c2CC(=O)O)no1` [Example 225, [5-Chloro-2-(5-methylisoxazole-3-carbonyl)-1H-indol-3-yl]acetic Acid]: 253 to 255 °C.
The result for `CC(C)(C)c1ccnc(C(=O)c2[nH]c3cc(Cl)ccc3c2CC(=O)O)c1` [Example 70, [2-(4-tert-Butylpyridine-2-carbonyl)-6-chloro-1H-indol-3-yl]acetic Acid] reads 203 to 205 °C.
The result for `O=C(O)Cc1c(C(=O)c2cc(Cl)ccn2)[nH]c2ccc(Cl)cc12` [Example 90, [5-Chloro-2-(4-chloropyridine-2-carbonyl)-1H-indol-3-yl]acetic Acid] reads 243 to 244 °C; that for `COCc1ccoc1C(=O)c1[nH]c2cc(Cl)ccc2c1CC(=O)O` [Example 240, [6-Chloro-2-[3-methoxymethyl-2-furoyl]-1H-indol-3-yl]acetic Acid], 212 to 213 °C.
`CCOC(=O)C=Cc1ccc(Cl)cc1NS(=O)(=O)c1ccc(C)cc1` [Example 293, 3-[4-Chloro-2-(toluene-4-sulfonylamino)-phenyl]-acrylic Acid Ethyl Ester] came in with a melting point of 124 to 127 °C.
The result for `Cc1cnc(C(=O)c2[nH]c3cc(Cl)ccc3c2CC(=O)O)s1` [Example 235, [6Chloro-2-(5-methylthiazole-2-carbonyl)-1H-indol-3-yl]acetic Acid] reads 225 to 226 °C.
The result for `CC(C)(O)c1ccoc1C(=O)c1[nH]c2cc(Cl)ccc2c1CC(=O)O` [Example 238, [6-Chloro-2-[3-(1-hydroxy-1-methylethyl)-2-furoyl]1H-indol-3-yl]acetic Acid] reads 229 to 230 °C; that for `CC(C)c1ccnc(C(=O)c2[nH]c3ccc(Cl)cc3c2CC(=O)O)c1` [Example 64, [5-Chloro-2-(4-isopropylpyridine-2-carbonyl)-1H-indol-3-yl]acetic Acid], 227 to 228 °C.
The result for `Cc1cc(C)nc(C(=O)c2[nH]c3ccc(Cl)cc3c2CC(=O)O)c1` [Example 120, [5-Chloro-2-(4,6-dimethylpyridine-2-carbonyl)-1H-indol-3-yl]acetic Acid] reads 233 to 235 °C.
Consider `O=C(O)Cc1c(C(=O)c2cc(CO)ccn2)[nH]c2ccc(Cl)cc12` [Example 98, [5-Chloro-2-[4-(hydroxymethyl)pyridine-2-carbonyl]-1H-indol-3-yl]acetic Acid], for which the melting point was in the range of 218 to 219 °C.
Take `O=C(O)Cc1c(C(=O)c2cccs2)[nH]c2cc(Cl)ccc12` [Example 236, [6-Chloro-2-(2-thienyl)carbonylindol-3-yl]acetic Acid]: the melting point is 177 to 178 °C.
Take `CCc1ccnc(C(=O)c2[nH]c3cc(Cl)ccc3c2CC(=O)O)c1` [Example 58, [6-Chloro-2-(4-ethylpyridine-2-carbonyl)-1H-indol-3-yl]acetic Acid]: the melting point is 215 to 216 °C (dec.).
The result for `Cc1cnc(C(=O)c2[nH]c3cc(Cl)ccc3c2CC(=O)O)c(C)c1` [Example 110, [6-Chloro-2-(3,5-dimethylpyridine-2-carbonyl)-1H-indol-3-yl]acetic Acid] reads 199 to 200 °C; that for `CCc1ccnc(C(=O)c2[nH]c3ccc(Cl)cc3c2CC(=O)O)c1F` [Example 112, [5-Chloro-2-(4-ethyl-3-fluoropyridine-2-carbonyl)-1H-indol-3-yl]acetic Acid], 208 °C; that for `O=C(O)Cc1c(C(=O)c2cc(CO)ccn2)[nH]c2cc(Cl)ccc12` [Example 96, [6-Chloro-2-[4-(hydroxymethyl)pyridine-2-carbonyl]-1H-indol-3-yl]acetic Acid], 210 to 212 °C.
Turning to `Cc1cccc(C(=O)c2[nH]c3cc(Cl)ccc3c2CC(=O)O)n1` [Example 78, [6-Chloro-2-(6-methylpyridine-2-carbonyl)-1H-indol-3-yl]acetic Acid], the melting point was 230 to 231 °C.
As for `COc1ccnc(C(=O)c2[nH]c3cc(Cl)ccc3c2CC(=O)O)c1` [Example 106, [6-Chloro-2-(4-methoxypyridine-2-carbonyl)-1H-indol-3-yl]acetic Acid], the melting point was 213 °C (dec.).
In turn, `Cc1cnc(C(=O)c2[nH]c3ccc(Cl)cc3c2CC(=O)O)cc1C` [Example 102, [5-Chloro-2-(4,5-dimethylpyridine-2-carbonyl)-1H-indol-3-yl]acetic Acid] displayed a melting point of 245 to 246 °C.
Next, `O=C(O)Cc1c(C(=O)c2ccccc2)[nH]c2cc(Cl)ccc12` [Example 2, (2-Benzoyl-6-chloro-1H-indol-3-yl)acetic Acid]: 183 to 186 °C; `O=C(O)Cc1c(C(=O)c2cc3ccccc3cn2)[nH]c2ccc(Cl)cc12` [Example 221, [5-Chloro-2-(isoquinoline-3-carbonyl)-1H-indol-3-yl]acetic Acid]: 239 to 240 °C.
Next, `Cc1cc(C(=O)c2[nH]c3cc(Cl)ccc3c2CC(=O)O)no1` [Example 227, [6-Chloro-2-(5-methylisoxazole-3-carbonyl)-1H-indol-3-yl]acetic Acid]: 227 to 229 °C; `O=C(O)Cc1c(C(=O)c2cc3ccccc3cn2)[nH]c2cc(Cl)ccc12` [Example 223, [6-Chloro-2-(isoquinoline-3-carbonyl)-1H-indol-3-yl]acetic Acid]: 236 to 237 °C; `Cc1cnc(C(=O)c2[nH]c3ccc(Cl)cc3c2CC(=O)O)s1` [Example 233, [5-Chloro-2-(5-methylthiazole-2-carbonyl)-1H-indol-3-yl]acetic Acid]: 231 to 233 °C.
The result for `CC(C)(C)c1ccnc(C(=O)c2[nH]c3ccc(Cl)cc3c2CC(=O)O)c1` [Example 72, [2-(4-tert-Butylpyridine-2-carbonyl)-5-chloro-1H-indol-3-yl]acetic Acid] reads 209 to 211 °C.
Turning to `O=C(O)Cc1c(C(=O)c2ccncc2)[nH]c2cc(Cl)ccc12` [Example 94, [6-Chloro-2-(pyridine-4-carbonyl)-1H-indol-3-yl]acetic Acid], the melting point is 256 to 257 °C.
In turn, `CCOC(=O)Cc1c(C(=O)c2ccc(Cl)cc2)[nH]c2cc(Cl)ccc12` [Example 297, [6-Chloro-2-(4-chloro-benzoyl)-1H-indol-3-yl]-acetic Acid Ethyl Ester] returned a melting point of 186 to 188 °C.
Next, `Cc1cccnc1C(=O)c1[nH]c2cc(Cl)ccc2c1CC(=O)O` [Example 74, [6-Chloro-2-(3-methylpyridine-2-carbonyl)-1H-indol-3-yl]acetic Acid]: 195 to 196 °C.
The result for `O=C(O)Cc1c(C(=O)c2cccnc2)[nH]c2cc(Cl)ccc12` [Example 92, [6-Chloro-2-(pyridine-3-carbonyl)-1H-indol-3-yl]acetic Acid] reads 267 to 268 °C; that for `O=C(O)Cc1c(C(=O)c2ccc(Cl)cc2)[nH]c2cc(Cl)ccc12` (as salt: malonate) [Example 9, [6-Chloro-2-(4-chlorobenzoyl)-1H-indol-3-yl]acetic Acid], 189 to 190 °C.
Next, `Cc1ccnc(C(=O)c2[nH]c3ccc(Cl)cc3c2CC(=O)O)c1` [Example 36, [5-Chloro-2-(4-methylpyridine-2-carbonyl)-1H-indol-3-yl]acetic Acid]: 230 to 231 °C.
`Cc1nnsc1C(=O)c1[nH]c2ccc(Cl)cc2c1CC(=O)O` [Example 229, [5-Chloro-2-(4-methyl-1,2,3-thiadiazole-5-carbonyl)-1H-indol-3-yl]acetic Acid]: the melting point was 229 to 230 °C.
The result for `Cc1nnsc1C(=O)c1[nH]c2cc(Cl)ccc2c1CC(=O)O` [Example 231, [6-Chloro-2-(4-methyl-1,2,3-thiadiazole-5-carbonyl)-1H-indol-3-yl]acetic Acid] reads 215 to 216 °C; that for `O=C(O)Cc1c(C(=O)c2ccc(Cl)cn2)[nH]c2cc(Cl)ccc12` [Example 88, [6-Chloro-2-(5-chloropyridine-2-carbonyl)-1H-indol-3-yl]acetic Acid], 242 to 244 °C; that for `Cc1ccnc(C(=O)c2[nH]c3ccc(Cl)cc3c2CC(=O)O)c1C` [Example 100, [5-Chloro-2-(3,4-dimethylpyridine-2-carbonyl)-1H-indol-3-yl]acetic Acid], 236 to 237 °C.
`CCc1ccnc(C(=O)c2[nH]c3ccc(Cl)cc3c2CC(=O)O)c1` [Example 60, [5-Chloro-2-(4-ethylpyridine-2-carbonyl)-1H-indol-3-yl]acetic Acid]: the melting point lay in the range of 217 to 218 °C.
Next, `O=C(O)Cc1c(C(=O)c2ccc(Cl)c(F)c2)[nH]c2cc(Cl)ccc12` [Example 204, [6-Chloro-2-(4-chloro-3-fluorobenzoyl)-1H-indol-3-yl]acetic Acid]: 179 to 182 °C; `O=C(O)Cc1c(C(=O)c2ccc(Cl)cc2)[nH]c2cc(Cl)ccc12` [Example 9, [6-Chloro-2-(4-chlorobenzoyl)-1H-indol-3-yl]acetic Acid]: 181 to 183 °C.
The result for `O=C(O)Cc1c(C(=O)c2nccs2)[nH]c2ccc(Cl)cc12` [Example 41, [5-Chloro-2-(thiazole-2-carbonyl)-1H-indol-3-yl]acetic Acid] reads 230 to 231 °C; that for `Cc1ccnc(C(=O)c2[nH]c3ccc(Cl)cc3c2CC(=O)NCCO)c1` [Example 269, [5-Chloro-2-(4-methylpyridine-2-carbonyl)-1H-indol-3-yl]-N-(2-hydroxyethyl)acetamide], 195.9 °C; that for `Cc1ccc(C(=O)c2[nH]c3ccc(Cl)cc3c2CC(=O)O)nc1` [Example 80, [5-Chloro-2-(5-methylpyridine-2-carbonyl)-1H-indol-3-yl]acetic Acid], 247 to 248 °C.
The result for `Cc1ccc(C(=O)c2[nH]c3cc(Cl)ccc3c2CC(=O)O)nc1` [Example 32, [6-Chloro-2-(5-methylpyridine-2-carbonyl)-1H-indol-3-yl]acetic Acid] reads 235 to 238 °C.
